Measured values as given in patent US7598377B2, “Inhibition of phosphoinositide 3-kinase β” (AstraZeneca AB, priority 2002, dated 2009).
pIC50: −log10 of the molar value. Read-outs that look alike come from different tables or passages of the source.

What was measured:
[1] = tested on: platelets on immobilized vWf; test: In vitro flow studies: platelet calcium flux and adhesion on immobilized vWf; type: cell-based
Experimental: The use of an in vitro-flow based adhesion assay enables us to simultaneously analyze platelet adhesion dynamics and activation (by monitoring cytosolic calcium flux) on immobilized von Willebrand factor (vWf). Briefly, isolated platelets are perfused through vWf (100 μg/ml) coated microcapillary tubes and analysis of cytosolic calcium flux conducted in real-time by confocal microscopy.
Washed platelets (1.5×10^9) suspended in PWB were incubated with the calcium indicator dyes, Oregon Green 488 BAPTA-1, AM (1 μM) and Fura Red, AM (1.25 μM), for 30 min at 37° C. Platelets were washed twice with PWB prior to being resuspended in Tyrode's buffer containing 1 mM calcium.
For static adhesion assays, platelets were allowed to settle on the surface of vWf-coated coverslips for 30 min at 37° C. For flow assays, platelets were either perfused over a vWf-coated microcapillary tube at a constant shear rate of 600, 1800 or 10,000 s^−1 or allowed to settle on the surface of a vWf-coated microcapillary tube prior to being accelerated through a shear gradient of 10,000 s^−1 over a 1 s interval. Real time platelet calcium flux in individual platelets was monitored at 1 s intervals over the 30 min incubation period or at 0.586 s intervals for up to 175 s for static and flow-based assays, respectively.

p70^S6 = p70^S6 (Homo sapiens, UniProt P23443); test: Ser/Thr kinase assay by MDS Pharma Services (Panlabs); type: biochemical
Sequence of p70^S6 (P23443 24-525 limits assumed): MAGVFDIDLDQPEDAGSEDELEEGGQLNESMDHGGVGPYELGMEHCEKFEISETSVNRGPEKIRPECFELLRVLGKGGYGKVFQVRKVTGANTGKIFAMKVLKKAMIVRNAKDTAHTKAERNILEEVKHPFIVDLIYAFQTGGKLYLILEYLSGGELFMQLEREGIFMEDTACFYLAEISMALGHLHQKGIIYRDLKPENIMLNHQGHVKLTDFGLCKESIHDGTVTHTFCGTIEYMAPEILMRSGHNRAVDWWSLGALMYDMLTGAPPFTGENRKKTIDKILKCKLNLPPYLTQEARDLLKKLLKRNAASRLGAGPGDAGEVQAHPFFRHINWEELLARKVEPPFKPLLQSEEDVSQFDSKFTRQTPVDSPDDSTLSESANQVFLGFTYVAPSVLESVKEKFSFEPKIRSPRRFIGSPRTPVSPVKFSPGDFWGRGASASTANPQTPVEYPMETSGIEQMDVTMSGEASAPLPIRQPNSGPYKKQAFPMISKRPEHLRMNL

CaMK = test: as above; type: biochemical
Fyn = Fyn (Homo sapiens, UniProt P06241); test: Tyrosine kinase assay by MDS Pharma Services (Panlabs); type: biochemical
Cdk2/cyclin A = Cdk2/cyclin A (Homo sapiens, UniProt P24941); test: Ser/Thr kinase assay by MDS Pharma Services (Panlabs); type: biochemical
p38α = p38α (Homo sapiens, UniProt Q16539); test: as above; type: biochemical
PKC Non-selective = test: as above; type: biochemical
EGF Receptor = EGF Receptor (Homo sapiens, UniProt P00533); test: Tyrosine kinase assay by MDS Pharma Services (Panlabs); type: biochemical
Sequence of EGF Receptor (P00533 25-1210): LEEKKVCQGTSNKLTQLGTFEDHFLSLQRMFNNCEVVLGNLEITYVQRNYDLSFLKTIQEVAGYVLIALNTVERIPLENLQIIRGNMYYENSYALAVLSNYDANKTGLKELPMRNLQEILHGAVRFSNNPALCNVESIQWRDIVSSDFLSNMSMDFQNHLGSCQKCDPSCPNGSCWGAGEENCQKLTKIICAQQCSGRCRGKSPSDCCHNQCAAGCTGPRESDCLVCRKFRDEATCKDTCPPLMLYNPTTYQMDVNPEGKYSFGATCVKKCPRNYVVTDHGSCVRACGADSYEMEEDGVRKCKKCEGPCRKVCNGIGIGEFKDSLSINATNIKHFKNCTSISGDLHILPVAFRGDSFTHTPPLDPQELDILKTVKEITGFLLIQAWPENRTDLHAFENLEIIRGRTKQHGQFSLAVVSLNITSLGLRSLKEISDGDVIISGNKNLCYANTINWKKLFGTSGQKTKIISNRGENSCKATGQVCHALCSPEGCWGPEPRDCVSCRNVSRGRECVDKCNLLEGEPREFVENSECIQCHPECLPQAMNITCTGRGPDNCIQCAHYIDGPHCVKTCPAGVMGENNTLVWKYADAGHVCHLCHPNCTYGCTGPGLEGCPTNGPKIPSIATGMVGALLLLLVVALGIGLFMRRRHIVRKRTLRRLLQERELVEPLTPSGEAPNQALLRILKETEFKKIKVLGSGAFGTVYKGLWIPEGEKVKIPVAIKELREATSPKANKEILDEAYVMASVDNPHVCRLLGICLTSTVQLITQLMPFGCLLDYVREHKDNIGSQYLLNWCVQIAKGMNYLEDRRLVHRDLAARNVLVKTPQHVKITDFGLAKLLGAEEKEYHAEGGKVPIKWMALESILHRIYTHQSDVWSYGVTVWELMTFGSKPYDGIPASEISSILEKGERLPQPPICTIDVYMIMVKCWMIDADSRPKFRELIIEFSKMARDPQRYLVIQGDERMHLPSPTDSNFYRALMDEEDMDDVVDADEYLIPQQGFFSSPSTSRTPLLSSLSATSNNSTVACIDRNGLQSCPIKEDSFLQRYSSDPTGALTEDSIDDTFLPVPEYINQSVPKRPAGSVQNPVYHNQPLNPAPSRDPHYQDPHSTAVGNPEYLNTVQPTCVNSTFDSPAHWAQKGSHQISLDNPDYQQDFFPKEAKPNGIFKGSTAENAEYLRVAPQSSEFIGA

p110γ-PI3K = p110γ-PI3K (Homo sapiens, UniProt P48736); test: In vitro enzyme assay, p110γ recombinant protein (Biological Example 1); type: biochemical
Sequence of p110γ-PI3K (P48736 whole entry, canonical isoform): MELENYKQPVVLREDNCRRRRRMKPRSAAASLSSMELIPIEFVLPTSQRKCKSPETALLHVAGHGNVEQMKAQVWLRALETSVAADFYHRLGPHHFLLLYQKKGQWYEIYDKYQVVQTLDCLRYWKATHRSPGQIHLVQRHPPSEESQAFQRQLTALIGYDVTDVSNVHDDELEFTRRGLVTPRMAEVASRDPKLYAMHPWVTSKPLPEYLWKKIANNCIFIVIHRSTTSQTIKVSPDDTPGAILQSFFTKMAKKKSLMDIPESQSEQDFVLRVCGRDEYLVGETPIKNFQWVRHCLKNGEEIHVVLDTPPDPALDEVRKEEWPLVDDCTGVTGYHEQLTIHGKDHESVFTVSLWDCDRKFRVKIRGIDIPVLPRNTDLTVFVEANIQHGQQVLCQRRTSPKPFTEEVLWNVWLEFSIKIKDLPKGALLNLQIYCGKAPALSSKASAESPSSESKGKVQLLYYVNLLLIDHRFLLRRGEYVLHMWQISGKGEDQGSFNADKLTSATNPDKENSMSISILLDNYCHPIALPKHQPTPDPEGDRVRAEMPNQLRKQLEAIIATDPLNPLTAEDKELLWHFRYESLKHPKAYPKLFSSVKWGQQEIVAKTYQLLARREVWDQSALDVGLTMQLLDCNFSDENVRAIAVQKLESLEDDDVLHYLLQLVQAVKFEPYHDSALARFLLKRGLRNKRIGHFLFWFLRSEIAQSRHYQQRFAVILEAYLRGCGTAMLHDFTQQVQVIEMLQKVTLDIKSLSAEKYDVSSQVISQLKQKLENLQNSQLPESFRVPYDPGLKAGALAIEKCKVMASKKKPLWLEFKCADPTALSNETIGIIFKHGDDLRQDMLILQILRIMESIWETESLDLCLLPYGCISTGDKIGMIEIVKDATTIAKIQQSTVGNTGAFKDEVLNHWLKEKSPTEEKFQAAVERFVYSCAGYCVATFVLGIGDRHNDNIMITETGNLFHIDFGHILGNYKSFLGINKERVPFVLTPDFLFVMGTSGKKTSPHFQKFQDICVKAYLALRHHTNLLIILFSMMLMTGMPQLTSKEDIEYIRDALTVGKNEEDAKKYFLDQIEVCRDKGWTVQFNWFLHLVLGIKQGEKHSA
Source text: Reactions were terminated and lipid products analysed as described above for the other PI 3-kinase isoforms assays.

p110α-PI3K = target: T1, p110α-PI3K (Homo sapiens, UniProt P42336); test: In vitro enzyme assay, p110α immunoprecipitated from platelet lysate (Biological Example 1); type: biochemical
T1 construct: The α and β isoforms of the PI3K were immunoprecipitated from a platelet lysate; from tissue; host or cells: washed platelets (lysate, immunoprecipitated with anti-p110α antibody)
T1 sequence (P42336 whole entry, canonical isoform): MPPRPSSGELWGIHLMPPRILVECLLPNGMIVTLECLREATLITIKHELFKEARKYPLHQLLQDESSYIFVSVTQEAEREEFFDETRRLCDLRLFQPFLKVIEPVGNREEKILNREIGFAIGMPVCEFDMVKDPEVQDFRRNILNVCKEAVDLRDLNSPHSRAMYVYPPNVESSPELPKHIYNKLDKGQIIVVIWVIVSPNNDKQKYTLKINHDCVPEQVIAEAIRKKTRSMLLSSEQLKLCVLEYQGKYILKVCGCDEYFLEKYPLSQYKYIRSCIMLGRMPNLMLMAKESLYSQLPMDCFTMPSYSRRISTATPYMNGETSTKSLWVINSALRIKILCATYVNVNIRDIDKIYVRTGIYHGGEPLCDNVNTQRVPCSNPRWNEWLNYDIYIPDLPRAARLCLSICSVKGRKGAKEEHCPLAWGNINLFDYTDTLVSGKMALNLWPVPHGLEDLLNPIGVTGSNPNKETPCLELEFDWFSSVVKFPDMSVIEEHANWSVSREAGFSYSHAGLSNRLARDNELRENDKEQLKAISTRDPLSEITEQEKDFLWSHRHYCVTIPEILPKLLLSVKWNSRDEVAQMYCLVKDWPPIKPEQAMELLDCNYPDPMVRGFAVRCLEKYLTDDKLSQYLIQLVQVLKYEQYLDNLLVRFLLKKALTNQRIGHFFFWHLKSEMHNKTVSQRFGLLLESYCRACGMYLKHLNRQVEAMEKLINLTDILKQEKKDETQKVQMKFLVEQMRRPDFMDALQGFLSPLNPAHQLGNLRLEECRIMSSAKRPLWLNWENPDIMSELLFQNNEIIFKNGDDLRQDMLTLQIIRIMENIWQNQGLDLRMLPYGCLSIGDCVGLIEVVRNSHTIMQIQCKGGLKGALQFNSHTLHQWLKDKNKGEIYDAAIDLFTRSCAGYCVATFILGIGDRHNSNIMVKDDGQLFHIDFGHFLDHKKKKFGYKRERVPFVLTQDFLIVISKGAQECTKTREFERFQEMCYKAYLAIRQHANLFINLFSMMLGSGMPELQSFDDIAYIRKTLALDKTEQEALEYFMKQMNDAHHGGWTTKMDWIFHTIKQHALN
T1 sequence (P27986 whole entry partner, canonical isoform): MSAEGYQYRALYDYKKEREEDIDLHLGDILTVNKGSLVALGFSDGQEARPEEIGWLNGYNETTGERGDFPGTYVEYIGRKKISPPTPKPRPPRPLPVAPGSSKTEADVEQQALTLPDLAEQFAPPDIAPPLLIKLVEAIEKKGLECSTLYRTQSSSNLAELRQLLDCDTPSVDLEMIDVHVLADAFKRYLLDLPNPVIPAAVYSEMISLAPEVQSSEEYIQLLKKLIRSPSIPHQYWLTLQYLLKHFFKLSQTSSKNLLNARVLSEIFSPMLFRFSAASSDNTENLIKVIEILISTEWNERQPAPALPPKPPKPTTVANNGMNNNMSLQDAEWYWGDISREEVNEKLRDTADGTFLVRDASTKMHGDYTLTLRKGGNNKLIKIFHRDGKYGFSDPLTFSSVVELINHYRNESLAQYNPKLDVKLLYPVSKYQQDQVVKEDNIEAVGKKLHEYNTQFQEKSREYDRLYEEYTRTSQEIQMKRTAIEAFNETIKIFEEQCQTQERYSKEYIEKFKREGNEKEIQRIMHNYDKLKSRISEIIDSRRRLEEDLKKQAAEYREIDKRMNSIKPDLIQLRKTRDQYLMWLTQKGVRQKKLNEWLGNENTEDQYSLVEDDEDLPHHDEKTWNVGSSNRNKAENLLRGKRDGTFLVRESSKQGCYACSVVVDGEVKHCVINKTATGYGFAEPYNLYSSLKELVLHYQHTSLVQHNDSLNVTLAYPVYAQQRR
Experimental: For each immunoprecipitation, 1 mg of lysate was incubated with an anti-p110α (1 μg), anti-p110β (1 μg), anti-p110δ (1 μg) or anti-PI4 kinase antibody (2-5 μg) and 50 μl of a 50% slurry of protein A beads overnight at 4° C. […] For PI4 kinase assays, protein A beads-immune complexes were also washed twice with lysis buffer, prior to two washes with 1× PI4 kinase assay buffer (20 mM Hepes, pH 7.5, 10 mM MgCl2, 0.3% Triton X-100) and the addition of other assay constituents, as described above. All reactions were terminated by the addition of 100 μl 1 M HCl, 200 μl choloroform/methanol (1:1) and 500 μl 2 M KCl and lipids extracted by centrifugation at 15,000×g for 2 minutes. The production of PI3 or PI4 kinase lipid products, PtdIns(3)P and PtdIns(4)P, were confirmed through TLC analysis. The lipid spots were then removed from the TLC plate and the level of radioactivity quantified to accurately determine the level of PtdIns(3)P/PtdIns(4)P production.

ERK1 = ERK1 (Homo sapiens, UniProt P27361); test: Ser/Thr kinase assay by MDS Pharma Services (Panlabs); type: biochemical
Sequence of ERK1 (P27361 whole entry, species assumed): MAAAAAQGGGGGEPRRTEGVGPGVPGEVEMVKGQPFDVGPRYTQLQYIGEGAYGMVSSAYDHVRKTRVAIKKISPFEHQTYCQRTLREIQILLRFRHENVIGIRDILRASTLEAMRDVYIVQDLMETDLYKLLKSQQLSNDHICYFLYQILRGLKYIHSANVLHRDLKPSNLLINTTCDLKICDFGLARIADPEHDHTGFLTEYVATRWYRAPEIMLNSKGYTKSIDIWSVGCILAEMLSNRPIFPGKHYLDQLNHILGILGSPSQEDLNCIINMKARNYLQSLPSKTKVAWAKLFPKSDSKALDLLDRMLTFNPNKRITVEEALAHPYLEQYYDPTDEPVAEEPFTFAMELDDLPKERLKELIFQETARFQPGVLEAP

washed platelets = test: Shear-induced platelet aggregation (cone & plate device, single platelet count); type: cell-based; conditions: 5 min, vWf 10 μg/ml, 5000 s^−1 for 5 min, read-out: inhibition of shear induced platelet aggregation, IC50
Source text: Platelet samples were aspirated and the level of platelet aggregation determined by analyzing the number of unincorporated single platelets using a […] hematology analyzer. All data were normalized to control experiments and expressed as the proportional increase relative to control samples.

[2] = tested on: carotid artery occlusive thrombus formation in rats; test: Modified Folts model in rats; type: in vivo, Sprague-Dawley rats
Experimental: Studies were approved by the University of Melbourne Animal Ethics Committee in accordance with the guidelines of the National Health & Medical Research Council of Australia. Anaesthesia was induced in Sprague-Dawley rats (260-400 g) with sodium pentobarbitone (Nembutal; 60 mg/kg i.p.; Merial Australia Pty. Ltd., Sydney, NSW, Australia), and in New Zealand White rabbits (2-3 kg) with pentobarbitone (15 mg/kg i.v.) and fentanyl (6 μg/kg i.v.; David Bull Laboratories, Mulgrave, VIC, Australia). Animals were mechanically ventilated (Ugo Basile ventilator, Comerio, VA, Italy) with room air supplemented with O2. Body temperature was maintained throughout the experiment. Arterial blood pressure was measured via a femoral artery catheter connected to a pressure transducer (Model 1050.1, AD Instruments, Sydney, NSW) and a blood flow probe (1 mm i.d. for rats & 2.5 mm i.d. for rabbits; flowmeter […], Transonic Systems Inc., Ithaca, N.Y., USA) was placed around each (control and test) carotid artery; all parameters were recorded on a PowerLab data acquisition system (8SP; AD Instruments). A silk suture was tied loosely around 1 artery, distal to the flow probe, for subsequent stenosis. […] Carotid blood flow was monitored until it reached 0 ml/min, indicating a clot had formed at the site of stenosis. […] Again, carotid blood flow was monitored until it reached 0 ml/min, and the time recorded. […]

IC50 (p70^S6): > 10 µM | IC50 (CaMK): > 10 µM | IC50 (Fyn): > 10 µM | IC50 (Cdk2/cyclin A): > 10 µM | IC50 (p38α): > 10 µM | IC50 (PKC Non-selective): > 10 µM | IC50 (EGF Receptor): > 10 µM | pIC50 (p110γ-PI3K; Table I, read-out: inhibitory concentration, gamma): < 5.30 | IC50 (p110γ-PI3K; read-out: IC50 (μM), p110γ-PI3K): > 10 µM | pIC50 (p110α-PI3K; Table I, read-out: inhibitory concentration, alpha): < 5.30 | IC50 (p110α-PI3K; read-out: IC50 (μM), p110α-PI3K): 5 µM | IC50 (ERK1): > 10 µM | pIC50 (washed platelets): 7.00 to 7.30
SMILES: Cc1cc(C(C)Nc2ccccc2)c2nc(N3CCOCC3)cc(=O)n2c1 (racemic) [TGX-221, (±)-7-methyl-2-morpholin-4-yl-9-(1-phenylaminoethyl)-pyrido[1,2-a]pyrimidin-4-one]
γ-independent GPIb calcium signalling ([1]; 0.5 μM): did not inhibit | platelet responses to accelerated shear ([1]; vWf matrix, shear rate gradient up to 10,000 s^−1 over 1 s): Eliminates Platelet Responses to Accelerated Shear | animals in which occlusive thrombus formation was immediately abolished ([2]; 2 mg/kg i.v. bolus): 100% | occlusive thrombus formation ([2]; 2 mg/kg, in words): completely prevented
